Assay results as given in patent US9452980B2, “Substituted benzamides” (Hoffmann-La Roche Inc., priority 2009, dated 2016).
Where a name gives a salt, the structure may show the parent alone. Read-outs that look alike come from different tables or passages of the source.

How the values were obtained:
mouse TAAR1 = mouse TAAR1 (Mus musculus (Mouse), UniProt Q923Y8); experiment: Radioligand binding assay on mouse TAAR1; settings: read-out: Ki (μM) mouse
Procedure, shortened: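 Displacement of the tritiated oxazol-2-ylamine radioligand was measured by filtration and scintillation counting after 1 h incubation at 4 °C. Test concentrations ran 10 pM–10 μM in duplicate, with 10 μM cold ligand giving nonspecific binding. The receptor source was membranes of a stable mouse TAAR1 HEK293 line.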

rat TAAR1 = rat TAAR1 (Rattus norvegicus (Rat), UniProt Q923Y9); experiment: Radioligand binding assay on rat TAAR1; settings: read-out: Ki (μM) rat
Procedure, shortened: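 Membranes from HEK293 cells stably expressing rat TAAR1, with Kd checked per batch by saturation. Competition with ³H-(S)-4-[(ethyl-phenyl-amino)-methyl]-4,5-dihydro-oxazol-2-ylamine, compounds 10 pM–10 μM in duplicate, 1 hr at 4 °C. Filtration then scintillation counting; nonspecific binding defined with 10 μM unlabeled ligand.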

[1] = mouse TAAR1, HEK-293 membranes, first value of cell mouse/rat
[2] = rat TAAR1, HEK-293 membranes, second value of cell mouse/rat

Chain of mouse TAAR1 (Q923Y8 whole entry): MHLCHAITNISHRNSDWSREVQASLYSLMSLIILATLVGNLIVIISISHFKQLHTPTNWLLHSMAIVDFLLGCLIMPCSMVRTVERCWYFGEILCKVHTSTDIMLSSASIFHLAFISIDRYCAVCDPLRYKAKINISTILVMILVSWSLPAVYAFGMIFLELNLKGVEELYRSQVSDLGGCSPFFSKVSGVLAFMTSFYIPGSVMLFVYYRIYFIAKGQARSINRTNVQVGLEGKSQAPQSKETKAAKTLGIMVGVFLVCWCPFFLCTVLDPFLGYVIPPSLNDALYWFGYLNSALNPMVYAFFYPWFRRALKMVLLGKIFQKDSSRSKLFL
Chain of rat TAAR1 (Q923Y9 whole entry): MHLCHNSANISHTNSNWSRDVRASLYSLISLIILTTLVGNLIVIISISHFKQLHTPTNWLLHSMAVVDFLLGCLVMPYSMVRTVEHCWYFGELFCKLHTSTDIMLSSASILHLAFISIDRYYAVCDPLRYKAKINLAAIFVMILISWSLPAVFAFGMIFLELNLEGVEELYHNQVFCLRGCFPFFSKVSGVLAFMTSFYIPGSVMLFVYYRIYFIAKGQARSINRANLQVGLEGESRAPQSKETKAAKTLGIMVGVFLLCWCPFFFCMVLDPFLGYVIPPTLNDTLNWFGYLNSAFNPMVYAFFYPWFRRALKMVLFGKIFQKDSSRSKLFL

Row | SMILES | Ki (mouse TAAR1; [1]) [µM] | Ki (rat TAAR1; [2]) [µM] | Ki (rat TAAR1) [µM] | Ki (mouse TAAR1) [µM]
1 | O=C(Nc1ccc(CCC2CCCCN2)cc1)c1ccc(F)cc1 (racemic) [Example 170, (RS)-4-Fluoro-N-(4-(2-(piperidin-2-yl)ethyl)phenyl)benzamide hydrochloride] | 0.234 | 0.0158 | – | –
2 | O=C(Nc1ccc(CC2CCCN2)cc1)c1ccc(Cl)cc1 (racemic) [Example 107, (RS)-4-Chloro-N-(4-pyrrolidin-2-ylmethyl-phenyl)-benzamide hydrochloride] | 0.0027 | 0.0445 | – | –
3 | O=C(Nc1ccc([C@H]2CCCNC2)cc1)c1ccc(OCC(F)(F)F)nc1 [Example 223, (R)—N-(4-(Piperidin-3-yl)phenyl)-6-(2,2,2-trifluoroethoxy)nicotinamide hydrochloride] | 0.0016 | – | 0.0018 | –
4 | O=C(Nc1ccc([C@H]2CCCNC2)cc1)c1cccc(Cl)c1 [Example 151, (R)-3-Chloro-N-(4-(piperidin-3-yl)phenyl)benzamide hydrochloride] | – | 0.0008 | – | 0.011
5 | O=C(Nc1ccc([C@H]2CNCCO2)cc1)Nc1ccc(C(F)(F)F)cc1 [Example 312, (S)-1-(4-(Morpholin-2-yl)phenyl)-3-(4-(trifluoromethyl)phenyl)urea hydrochloride] | 0.0007 | – | 0.0011 | –
6 | O=C(Nc1ccc([C@H]2CNCCO2)cc1)c1cc(Cl)nc(Cl)c1 [Example 271, (S)-2,6-Dichloro-N-(4-(morpholin-2-yl)phenyl)isonicotinamide hydrochloride] | – | – | 0.004 | 0.0067
7 | O=C(Nc1ccc(C2CCCNC2)cc1)Nc1ccc(Cl)nc1 (racemic) [Example 79, (RS)-1-(6-Chloro-pyridin-3-yl)-3-(4-piperidin-3-yl-phenyl)-urea hydrochloride] | 0.0075 | 0.0924 | – | –
8 | O=C(Nc1ccc(CCC2CCCCN2)cc1)c1ccc(Cl)c(Cl)c1 (racemic) [Example 176, (RS)-3,4-Dichloro-N-(4-(2-(piperidin-2-yl)ethyl)phenyl)benzamide hydrochloride] | 0.0253 | 0.001 | – | –
9 | CCCc1cnc(C(=O)Nc2ccc([C@@H]3CCCNC3)cc2)cn1 [Example 278, (S)—N-(4-(Piperidin-3-yl)phenyl)-5-propylpyrazine-2-carboxamide hydrochloride] | – | 0.0118 | – | 0.829
10 | O=C(NCc1ccc([C@@H]2CNCCO2)cc1)c1ccc(C(F)(F)F)nc1 [Example 321, (R)—N-(4-(Morpholin-2-yl)benzyl)-6-(trifluoromethyl)nicotinamide hydrochloride] | – | – | 0.026 | 1.31
11 | O=C(Nc1ccc(C2CNCCO2)cc1)c1ccccc1 (racemic) [Example 188, (RS)—N-(4-(Morpholin-2-yl)phenyl)benzamide hydrochloride] | 0.138 | – | 0.0055 | –
12 | CCOc1ccc(C(=O)Nc2ccc(C3CCNC3)cc2)cc1 (racemic) [Example 52, (RS)-4-Ethoxy-N-(4-pyrrolidin-3-yl-phenyl)-benzamide hydrochloride] | 0.0017 | 0.0109 | – | –
13 | O=C(Nc1ccc(CCC2CCCCN2)cc1)c1ccc(Cl)cn1 (racemic) [Example 171, (RS)-5-Chloro-N-(4-(2-(piperidin-2-yl)ethyl)phenyl)picolinamide hydrochloride] | 0.198 | 0.0101 | – | –
14 | O=C(COc1ccc(Cl)cc1)Nc1ccc([C@@H]2CCCNC2)cc1 [Example 235, (S)-2-(4-Chlorophenoxy)-N-(4-(piperidin-3-yl)phenyl)acetamide hydrochloride] | – | 0.0006 | – | 0.0334
15 | O=C(Nc1ccc([C@H]2CCCNC2)cc1)c1ccc(Cl)cn1 [Example 167, (R)-5-Chloro-N-(4-(piperidin-3-yl)phenyl)picolinamide hydrochloride] | – | 0.0048 | – | 0.0271
16 | C#Cc1ccc(C(=O)Nc2ccc(C3CCNC3)cc2)cc1 (racemic) [Example 54, (RS)-4-Ethynyl-N-(4-pyrrolidin-3-yl-phenyl)-benzamide hydrochloride] | 0.0021 | – | 0.0152 | –
17 | Cc1ccc(C(=O)Nc2ccc([C@@H]3CCCNC3)cc2)cc1C [Example 227, (S)-3,4-Dimethyl-N-(4-(piperidin-3-yl)phenyl)benzamide hydrochloride] | – | 0.0012 | – | 0.177

Further lines, with some results ahead:

Row | Ki (mouse TAAR1; [1]) [µM] | Ki (rat TAAR1; [2]) [µM] | SMILES | Ki (rat TAAR1) [µM] | Ki (mouse TAAR1) [µM]
18 | 0.0008 | 0.0018 | O=C(Nc1ccc(C2CCNC2)cc1)c1ccc(Cl)c(Cl)c1 (racemic) [Example 56, (RS)-3,4-Dichloro-N-(4-pyrrolidin-3-yl-phenyl)-benzamide hydrochloride] | – | –
19 | 0.0128 | 0.0014 | O=C(Nc1ccc([C@@H]2CCCNC2)cc1)c1cc(Cl)nc(Cl)c1 [Example 281, (S)-2,6-Dichloro-N-(4-(piperidin-3-yl)phenyl)isonicotinamide hydrochloride] | – | –
20 | 0.0083 | 0.0363 | O=C(Cc1ccc(Cl)cc1)Nc1ccc(C2CCNC2)cc1 (racemic) [Example 17, (RS)-2-(4-Chloro-phenyl)-N-(4-pyrrolidin-3-yl-phenyl)-acetamide hydrochloride] | – | –
21 | 0.0028 | 0.0036 | O=C(Nc1ccc(C2CCNC2)cc1)Nc1ccc(Cl)cc1Cl (racemic) [Example 7, (RS)-1-(2,4-Dichloro-phenyl)-3-(4-pyrrolidin-3-yl-phenyl)-urea hydrochloride] | – | –
22 | 0.0333 | 0.0026 | Cc1ccc(C(=O)Nc2ccc(C3CCCNC3)cc2)cc1 (racemic) [Example 185, (RS)-4-Methyl-N-(4-(piperidin-3-yl)phenyl)benzamide hydrochloride] | – | –
23 | 0.0026 | 0.0011 | O=C(Nc1ccc(C2CNCCO2)cc1)c1ccc(Oc2ccc(Cl)cc2)cc1 (racemic) [Example 206, (RS)-4-(4-Chlorophenoxy)-N-(4-(morpholin-2-yl)phenyl)benzamide hydrochloride] | – | –
24 | 0.0041 | 0.0242 | O=C(Nc1ccc(C2CCNC2)cc1)c1ccc(Cl)nc1 (racemic) [Example 43, (RS)-6-Chloro-pyridine-3-carboxylic acid (4-pyrrolidin-3-yl-phenyl)-amide hydrochloride] | – | –
25 | 0.0201 | 0.0024 | O=C(Nc1ccc(C2CNCCO2)cc1)c1ccc(C(F)(F)F)cn1 (racemic) [Example 141, (RS)-5-Trifluoromethyl-pyridine-2-carboxylic acid (4-morpholin-2-yl-phenyl)-amide hydrochloride] | – | –
26 | 0.0008 | 0.0022 | CCOc1ccc(C(=O)Nc2ccc(C3CCCNC3)cc2)nc1 (racemic) [Example 179, (RS)-5-Ethoxy-pyridine-2-carboxylic acid (4-piperidin-3-yl-phenyl)-amide; hydrochloride] | – | –
27 | 0.0407 | 0.0606 | CCC(C(=O)Nc1ccc(C2CCNC2)cc1)c1ccccc1 (racemic) [Example 38, (RS)-2-Phenyl-N—((RS)-4-pyrrolidin-3-yl-phenyl)-butyramide] | – | –
28 | 0.113 | 0.0022 | COc1cc(C(=O)Nc2ccc([C@@H]3CCCNC3)cc2)ccc1Cl [Example 201, (S)-4-Chloro-3-methoxy-N-(4-(piperidin-3-yl)phenyl)benzamide hydrochloride] | – | –
29 | 0.0046 | 0.0081 | O=C(Nc1ccc(C2CCNC2)cc1)c1cc2ccccc2c(Cl)n1 (racemic) [Example 108, (RS)-1-Chloro-isoquinoline-3-carboxylic acid (4-pyrrolidin-3-yl-phenyl)-amide hydrochloride] | – | –
30 | 0.0059 | 0.0031 | O=C(Nc1ccc(C2CNCCO2)cc1)c1cnc(Cl)c(Cl)c1 (racemic) [Example 219, (RS)-5,6-Dichloro-N-(4-(morpholin-2-yl)phenyl)nicotinamide hydrochloride] | – | –
31 | 0.0048 | 0.023 | O=C(Nc1ccc([C@@H]2CNC[C@@H]2F)cc1)c1ccc(Cl)cc1 (racemic) [Example 69, 4-Chloro-N-[4-((3RS,4RS)-4-fluoro-pyrrolidin-3-yl)-phenyl]-benzamide hydrochloride] | – | –
32 | 0.437 | 0.0159 | O=C(Nc1ccc(CCC2CCCCN2)cc1)c1cnc(Cl)cn1 (racemic) [Example 174, (RS)-5-Chloro-N-(4-(2-(piperidin-2-yl)ethyl)phenyl)pyrazine-2-carboxamide hydrochloride] | – | –
33 | 0.0473 | 0.0027 | O=C(Nc1ccc(CCC2CCCCN2)cc1)c1ccc(C(F)(F)F)cc1 (racemic) [Example 175, (RS)—N-(4-(2-(Piperidin-2-yl)ethyl)phenyl)-4-(trifluoromethyl)benzamide hydrochloride] | – | –
34 | 0.15 | 0.0317 | O=C(Nc1ccc(C2CNCCO2)cc1)c1ccc(OC2CCOCC2)nc1 (racemic) [Example 232, (RS)—N-(4-(Morpholin-2-yl)phenyl)-6-(tetrahydro-2H-pyran-4-yloxy)nicotinamide hydrochloride] | – | –
35 | 0.146 | 0.0044 | O=C(Nc1ccc(C2CNCCO2)cc1)c1ccc(N2CCCC2)nc1 (racemic) [Example 279, (RS)—N-(4-(Morpholin-2-yl)phenyl)-6-(pyrrolidin-1-yl)nicotinamide hydrochloride] | – | –
36 | 0.0509 | 0.007 | O=C(Nc1ccc([C@H]2CNCCO2)cc1)c1ccc(Cl)cc1I [Example 301, (S)-4-Chloro-2-iodo-N-(4-(morpholin-2-yl)phenyl)benzamide] | – | –
37 | 0.0013 | 0.0022 | O=C(Nc1ccc(C2CCNC2)cc1)Nc1ccc(Cl)cn1 (racemic) [Example 44, (RS)-1-(5-Chloro-pyridin-2-yl)-3-(4-pyrrolidin-3-yl-phenyl)-urea hydrochloride] | – | –
